Measured values as given in patent publication US7012128B2, “Interaction between cyclin D1 and steroid receptor co-activators and uses thereof in assays” (TopoTarget UK Limited, priority 1998, dated 2006).

Tests used:
[1] = system: wild type ER; assay: ERE-TATA-luciferase transactivation of wild type ER in COS-7 cells; type: cell-based; conditions: COS-7, wild type ER, presence of ligand
Method: FIG. 1. Mapping of the region of cyclin D1 required for ER-mediated transactivation. • (A) The effect of cyclin D1 deletion mutants on ER activation in the presence of ligand. The cyclin D1 derivatives used in this study are shown in the left panel; right side of Figure represents the relative capacity of the mutants to potentiate ERE-dependent transcription. ER-negative COS-7 cells were transfected with expression vectors for wild type ER (200 ng), cyclin D1 or cyclin D1 mutants (2.5 μg), an internal control §-galactosidase plasmid (0.5 μg) and an ERE-TATA-luciferase reporter (3 μg). The effect on ER transactivation of wild type cyclin D1 was set to 100%. These studies were performed in three separate experiments and expressed as mean values with standard deviation less then […]. The alignment of leucine-rich motif of ER with D-type cyclins are shown on the bottom; the leucine-rich motif in cyclin D1 is indicated as a dark box. The identifiers for the sequences shown are as follows: Cyclin D1 (SEQ ID NO:11), Estrogen receptor (SEQ ID NO:12), the Cyclin D2 (SEQ ID NO:13), and the Cyclin D3 (SEQ ID NO:14). • (B) ER activation by D-type cyclins, cyclin D1 L254/255A point mutant (D1-LALA) and SRC-1 in the presence of ligand. COS-7 cells were transfected with D-type cyclin expression vectors, cyclin D1 Leucine-to-Alanine point mutant (D1-LALA) or SRC-1 expression vector together with wild type ER expression vector, an ERE-TATA-luciferase reporter plasmid and the internal control β-galactosidase construct. Data are expressed as relative luciferase activity compared with basal ERE-luciferase activity of wild type ER and are normalized for transfection efficiencies.
FIG. 3. Role of coactivators in cyclin D1—induced transactivation. • (A) Effect of a dominant negative form of SRC-1 (SRC1-DN) on ER transactivation. SRC1-DN encoding amino acids 1245-1441 of SRC-1 (1, 2.5 and 5 μg) was introduced by transient transfection together with wild type ER (200 ng) and was tested for its ability to modulate ERE-dependent transcription. • (B) Effect of SRCI-DN on SRC-1 and TIF 2 mediated ER transactivation. SRC-1 (3 μg) or TIF-2 (3 μg) were transfected with SRC1-DN (3 μg) and tested for ER transactivation. • (C) Effect of SRC1-DN on cyclin D1-induced transactivation of ER 1-535 mutant. Cyclin D1 was cotransfected with SRC1-DN (1, 2.5, 5 μg) and tested for its effect on an ER harboring a deletion of coactivator binding site in helix 12 (ER 1-535). • (D) Effect of SRC1-DN on cyclin D1-induced transactivation of ER L543/544A mutant. Cyclin D1 and SRC1-DN (1, 2.5, 5 gg) were transfected and tested for the activity of ER helix 12 point mutant (ER L543/544A). The transient transfections (A-C) were performed in COS-7 cells, which were maintained in DMEM with 10 nM ligand. The relative activity was calculated by normalizing to the internal control and was divided by luciferase activity of ER (mutant) in the presence of ligand. The transfection for each set of conditions were done at least in four independent experiments and expressed as average ±SD.
To study how cyclin D1 activates ER, cyclin D1 deletion mutants were tested for their effect on ER-transactivation. COS-7 cells were transfected with cyclin D1 mutants, together with ER and a luciferase reporter gene construct driven by a minimal TATA promoter linked to an estrogen response element (ERE). […] This part of the protein is not involved in CDK interaction and is poorly conserved among the different cyclins. […] To test the relevance of this leucine-rich domain of cyclin D1 in ER activation, a cyclin D1 mutant was constructed in which leucines 254 and 255 were mutated to alanines (D1 L254/255A). This mutation in cyclin D1 is similar to the mutation in ER (ER L543/544A) that interferes with coactivator binding to AF-2 (Danielian et al., 1992). […]

[2] = system: SRC family proteins (SRC-1, AIB-1); assay: Co-immunoprecipitation with HA-tagged coactivators from COS-7 cells; type: binding; conditions: absence of 17β-estradiol
From the text: COS-7 cells were cotransfected with HA-tagged constructs encoding the nuclear receptor coactivators SRC-1, AIB-1 or p300 (Anzick et al., 1997; Chakravarti et al., 1996; Hanstein et al., 1996; Kamei et al., 1996; Onate et al., 1995) together with control plasmid, plasmids directing the synthesis of wild type cyclin D1 or D1 L254/255A mutant (D1-LALA). 12CA5 HA antibodies were used for immunoprecipitation of whole cell extracts prepared from these cells and co-immunoprecipitation of cyclin D1 (mutants) was examined by Western blot analysis using anti-cyclin D1 antibody. […] Precipitation with the anti-cyclin D1 antibody from the total lysate of the cells transfected with cyclin D1 and cyclin D1-LALA was similar. Binding of cyclin D1 and cyclin D1 L254/255A mutant to ER was then investigated. COS-7 cells were transfected with ER expression vector, cyclin D1 (mutant) and/or control plasmids. […] Differentially phosphorylated species of pRb were detected by Western blotting using the polyclonal pRb antibody (C15, Santa Cruz).
Cells were lysed in ELB containing 250 mM NaCl, 0.1% NP-40, 50 mM HEPES pH 7.0, 5 mM EDTA and protease inhibitors. […] After blocking with PBS containing 5% milk and 0.1% Tween-20, proteins were detected with monoclonal antibodies directed against cyclin D1 (DCS-6, Neomarkers) and peroxidase-conjugated goat anti-mouse IgG. […]

Cyclin D1-LALA: cyclin D1 mutant in which leucines 254 and 255 were mutated to alanines; dominant negative
ER transactivation capacity [1]: virtually unable to activate wild type ER
interaction with SRC family proteins [2]: did not interact
